We go through 5 compounds from PMC3407934, “Functional Expression in Escherichia coli of the Disulfide-Rich Sea Anemone Peptide APETx2, a Potent Blocker of Acid-Sensing Ion Channel 3” (Marine Drugs, 2012).

Entries after “also recorded” stand apart in the source; their conditions may differ. Like-named read-outs stand apart in the source and are kept apart here. Positions of bridges follow the written chain, without caps; N, C: chain ends. No end group written: not given here. A value given as a limit tells only on which side of the number the result lay.

In one assay the test system is ASIC3. Conditions: cited from earlier work; for potency and specificity of ASIC3 inhibition (in words): statement on the majority of currently known inhibitors of ASIC3. The text has this: Acid-sensing ion channels (ASICs) are proton-gated sodium channels present in the central and peripheral nervous system of chordates. ASIC3 is highly expressed in sensory neurons and plays an important role in inflammatory and ischemic pain. Thus, specific inhibitors of ASIC3 have the potential to be developed as novel analgesics. […] However, the mechanism of action of APETx2 and the molecular basis for its interaction with ASIC3 is not known. In order to assis ... || The pharmacology of ASIC3 is still relatively poorly understood when compared with voltage-gated sodium (NaV) and calcium (CaV) channels. Thus, the characterization of, and development of structure-activity relationships for, selective ASIC3 modulators will be useful for characterizing the function of ASIC3 under both normal and pathophysiological conditions.

Assay [1] relates to ASIC3-containing channels (ASIC3, ASIC3/1a, ASIC3/1b, ASIC3/2b). Conditions: cited from earlier work. From the text:
(§1) The pharmacology of ASIC3 is still relatively poorly understood when compared with voltage-gated sodium (NaV) and calcium (CaV) channels. Thus, the characterization of, and development of structure-activity relationships for, selective ASIC3 modulators will be useful for characterizing the function of ASIC3 under both normal and pathophysiological conditions. […] The majority of currently known inhibitors of ASIC3 (e.g., gadolinium, a ...

For another assay, the system named is rodent pain models. The note with it: cited from earlier work.
Text: as §1

The subject of a further assay is NaV1.8. Conditions: cited from earlier work. The text has this: The pharmacology of ASIC3 is still relatively poorly understood when compared with voltage-gated sodium (NaV) and calcium (CaV) channels. Thus, the characterization of, and development of structure-activity relationships for, selective ASIC3 modulators will be useful for characterizing the function of ASIC3 under both normal and pathophysiological conditions.

Assay [2] has as its system acid-induced and post-operative pain in rats. More on the design: method as in PMID 18923424, PMID 21508231, PMID 20860671. Conditions: cited from earlier work.
A further assay concerns the target T1, rat ASIC3 (Rattus norvegicus, UniProt O35240).
T1 construct: expressed in transfected cells; host or cells: Xenopus laevis oocytes (cRNA injection)
T1 sequence (O35240 1-533): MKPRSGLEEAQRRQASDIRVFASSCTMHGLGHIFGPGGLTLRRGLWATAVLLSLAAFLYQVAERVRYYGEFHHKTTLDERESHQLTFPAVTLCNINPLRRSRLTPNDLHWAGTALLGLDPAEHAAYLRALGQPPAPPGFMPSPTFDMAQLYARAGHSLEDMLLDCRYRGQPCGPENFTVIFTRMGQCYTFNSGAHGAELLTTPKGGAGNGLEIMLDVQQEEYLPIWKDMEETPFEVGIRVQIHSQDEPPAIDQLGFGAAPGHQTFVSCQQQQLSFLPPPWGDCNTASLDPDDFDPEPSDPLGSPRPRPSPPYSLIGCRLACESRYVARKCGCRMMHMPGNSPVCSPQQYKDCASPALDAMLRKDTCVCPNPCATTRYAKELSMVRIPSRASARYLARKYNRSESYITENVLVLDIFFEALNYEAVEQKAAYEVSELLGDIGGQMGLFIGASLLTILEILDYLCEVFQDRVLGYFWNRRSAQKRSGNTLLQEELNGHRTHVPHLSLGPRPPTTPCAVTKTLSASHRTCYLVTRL
Kind of assay: Inhibition of homomeric rat ASIC3 currents in Xenopus oocytes (two-electrode voltage clamp). The assay is classed as cell-based. The note with it: rat ASIC3 in Xenopus laevis oocytes; pH drop from 7.4 to 6.0 every minute; -60 mV; RT (18–21 °C); ND96 with 0.1% BSA; pH 6 stimulus buffered with MES. The method, then:
The efficacy of rAPETx2 was tested on rat ASIC3 expressed in Xenopus laevis oocytes.
Figure 4 (A) Representative current traces comparing the concentration-dependent inhibition of rat ASIC3 (expressed in Xenopus oocytes) by synthetic (s) and recombinant (r) APETx2. (B) Concentration-effect curves for sAPETx2 and an rAPETx2–F15A mutant.
Oocytes were obtained from Xenopus laevis and defolliculatd by treatment with collagenase (Sigma type I). Rat ASIC3 cRNA was synthesised using an mMessage mMachine cRNA transcription kit and healthy stage V–VI oocytes injected with 4 ng rat ASIC3 cRNA (40 nL of 100 ng/μL). Oocytes were kept at 17 °C in ND96 solution (96 mM NaCl, 2 mM KCl, 1 mM CaCl2, 2 mM MgCl2, 5 mM HEPES, 5 mM pyruvic acid, 50 µg/mL gentamicin, 2.5% fetal horse serum, pH 7.4). Membrane currents were recorded 2–6 days post cRNA injection under voltage-clamp (Axoclamp 900A amplifier, Molecular Devices, Sunnyvale, CA, USA) using two standard glass microelectrodes with resistances of 0.5–1 MΩ when filled with 3 M KCl solution. Data acquisition and analysis were performed using pCLAMP software (Version 10, Molecular Devices, Sunnyvale, CA, USA). Oocytes were clamped at −60 mV with data sampled at 1000 Hz and filtered at […]. All experiments were performed at RT (18–21 °C) in ND96 solution containing 0.1% fatty acid free-bovine serum albumin (BSA). […]
On the technique in general: Two-electrode voltage clamp holds a large cell at a set potential and records current.

As to `Cc1nc(NC(=N)N)nc2ccccc12` [GMQ, 2-guanidine-4-methylquinazoline], in the assay with ASIC3 (normal pH), the “ASIC3 agonism (in words)” value was “persistent activation at normal pH”.
`N=C(N)NC(=O)c1nc(Cl)c(N)nc1N` [amiloride]: the “potency and specificity of ASIC3 inhibition (in words)” value in the assay with ASIC3 was “neither potent nor specific”.
In the case of `[Gd]` [gadolinium], the “potency and specificity of ASIC3 inhibition (in words)” value in the assay with ASIC3 is reported as “neither potent nor specific”.
In general, IC50 refers to the concentration needed to halve the response being measured. Turning to APETx2, the “potency and selectivity for ASIC3 (in words)” value in the assay on ASIC3 (ASIC3 / ASIC3-containing channels) was “most potent and selective inhibitor of ASIC3-containing channels; also recorded: only known potent and selective inhibitor of ASIC3; also recorded: specific peptide blocker of ASIC3”. Also, the IC50 is approximately 60 nM in assay [1] (homomeric ASIC3, read-out: IC50 for homomeric ASIC3) and not above 2000 nM in assay [1] (upper end of range, depending on the subunit composition of the channel, read-out: IC50 for ASIC3-containing channels (upper end)). Besides, the “analgesic effect in rodent pain models (in words)” value in the assay on rodent pain models is reported as “analgesic in rodent pain models”. For the same compound, the “inhibition of NaV1.8 (in words)” value with NaV1.8 is given as “inhibits NaV 1.8”. The “potency on NaV1.8 relative to ASIC3 (in words)” value in the assay with NaV1.8 (compared with ASIC3) was “lower potency than for ASIC3”. Further, the “effect on acid-induced and post-operative pain (in words)” value in assay [2] was “abolish acid-induced and post-operative pain in rats”.
Compound “GTACSCGNSKGIYWFYRPSCPTDRGYTGSCRYFLGTCCTPAD (disulfide 4-37, 6-30, 20-38) [rAPETx2]” showed a half-inhibitory concentration (IC50) on rat ASIC3 of 80 nM.
